From ChEMBL document CHEMBL1773001, “Broad-spectrum antiviral activity including human immunodeficiency and hepatitis C viruses mediated by a novel retinoid thiosemicarbazone derivative” (Eur J Med Chem, 2011)
Calls of active or inactive are those of the source. The rule behind the calls is not given here.

Assays:
[1] = Cytotoxicity against human HFF cells infected with Human cytomegalovirus AD169 assessed as viable cells by neutral red uptake assay; type: cell-based
[2] = Selectivity index, ratio of CC50 for human HFF cells infected with […] to EC50 for Human cytomegalovirus AD169; type: toxicity, cell-based; conditions: read-out: Selectivity Index
[3] = test system: Hepatitis C virus; assay: Antiviral activity against Hepatitis C virus infected in human Huh7ET cells assessed as viral RNA level by RT-PCR; type: functional, organism-based, Hepacivirus hominis; conditions: Huh-7; for Activity: Hepacivirus hominis
[4] = Cytotoxicity against human Huh7ET cells infected with Hepatitis C virus assessed as ribosomal RNA level by RT-PCR; type: cell-based, Huh-7
[5] = test system: Human betaherpesvirus 5; assay: Antiviral activity against Human cytomegalovirus (strain AD169) infected in 1 hr pretreated human HFF cells assessed as reduction in viral-induced cytopathic effect by neutral red uptake assay; type: functional, organism-based; conditions: Human betaherpesvirus 5, AD169, HFF
[6] = Antiviral activity against Cowpox virus (Brighton Red) infected in human HFF cells assessed as reduction in viral-induced cytopathic effect by neutral red uptake assay; type: functional, cell-based
[7] = Selectivity index, ratio of CC90 for human Huh7ET cells infected with Hepatitis C virus to EC90 for Hepatitis C virus by luciferase reporter gene assay; type: toxicity, cell-based, Huh-7; conditions: read-out: Selectivity Index
[8] = Cytotoxicity against human HFF cells infected with Vaccinia virus Copenhagen assessed as viable cells by neutral red uptake assay; type: cell-based
[9] = Selectivity index, ratio of CC50 for human HFF cells infected with Cowpox virus (Brighton Red) to EC50 for Cowpox virus (Brighton Red); type: toxicity, cell-based; conditions: read-out: Selectivity Index
[10] = Selectivity index, ratio of CC90 for human Huh7ET cells infected with Hepatitis C virus to EC90 for Hepatitis C virus by RT-PCR; type: toxicity, cell-based, Huh-7; conditions: read-out: Selectivity Index
[11] = Selectivity index, ratio of CC50 for human HFF cells infected with Cowpox virus (Brighton Red) to EC50 for Vaccinia virus Copenhagen; type: toxicity, cell-based; conditions: read-out: Selectivity Index
[12] = Cytotoxicity against human HFF cells infected with Cowpox virus (Brighton Red) assessed as viable cells by neutral red uptake assay; type: cell-based
[13] = test system: Hepatitis C virus; assay: Antiviral activity against Hepatitis C virus infected in human Huh7ET cells assessed as inhibition of viral replication by luciferase reporter gene assay; type: functional, organism-based, Hepacivirus hominis; conditions: Huh-7
[14] = Selectivity index, ratio of CC50 for human Huh7ET cells infected with Hepatitis C virus to EC50 for Hepatitis C virus by RT-PCR; type: toxicity, cell-based, Huh-7; conditions: read-out: Selectivity Index
[15] = test system: Vaccinia virus; assay: Antiviral activity against Vaccinia virus Copenhagen infected in human HFF cells assessed as reduction in viral-induced cytopathic effect by neutral red uptake assay; type: functional, organism-based, Orthopoxvirus vaccinia
[16] = Selectivity index, ratio of CC50 for human Huh7ET cells infected with Hepatitis C virus to EC50 for Hepatitis C virus by luciferase reporter gene assay; type: toxicity, cell-based, Huh-7; conditions: read-out: Selectivity Index
[17] = Cytotoxicity against human PBMC infected with Human immunodeficiency virus 1 LAV1 by MTS assay; type: cell-based
[18] = test system: Human immunodeficiency virus 1; assay: Antiviral activity against Human immunodeficiency virus 1 LAV1 assessed as reduction in RT activity by [3H]-dTTP incorporation assay; type: functional, organism-based
[19] = Selectivity index, ratio of CC50 for human PBMC infected with Human immunodeficiency virus 1 LAV1 to EC50 for Human immunodeficiency virus 1 LAV1
[20] = Selectivity index, ratio of CC50 for human HFF cells infected with […] to EC50 for Varicella-zoster virus Ellen; type: toxicity, cell-based; conditions: read-out: Selectivity Index
[21] = test system: Human alphaherpesvirus 3; assay: Antiviral activity against Varicella-zoster virus Ellen infected in 1 hr pretreated human HFF cells assessed as reduction in viral-induced cytopathic effect by neutral red uptake assay; type: functional, organism-based; conditions: Human alphaherpesvirus 3, Ellen
[22] = Cytotoxicity against human HFF cells infected with Varicella-zoster virus Ellen assessed as viable cells by neutral red uptake assay; type: cell-based
[23] = Cytotoxicity against human HFF cells infected with Human cytomegalovirus AD169 assessed as viable cells after 1 hr by plaque reduction assay; type: cell-based
[24] = Selectivity index, ratio of CC50 for human HFF cells infected with […] to EC50 for Human cytomegalovirus AD169 after 1 hr by plaque reduction assay; type: toxicity, cell-based; conditions: read-out: Selectivity Index
[25] = test system: Human alphaherpesvirus 3; assay: Antiviral activity against Varicella-zoster virus Ellen infected in human HFF cells assessed as inhibition of viral replication after 1 hr by plaque reduction assay; type: functional, organism-based; conditions: Human alphaherpesvirus 3, Ellen
[26] = Selectivity index, ratio of CC50 for human HFF cells infected with […] to EC50 for Varicella-zoster virus Ellen after 1 hr by plaque reduction assay; type: toxicity, cell-based; conditions: read-out: Selectivity Index
[27] = Cytotoxicity against human HFF cells infected with Varicella-zoster virus Ellen assessed as viable cells after 1 hr by plaque reduction assay; type: cell-based
[28] = test system: Human betaherpesvirus 5; assay: Antiviral activity against Human cytomegalovirus (strain AD169) infected in human HFF cells assessed inhibition of viral replication after 1 hr by plaque reduction assay; type: functional, organism-based; conditions: Human betaherpesvirus 5, AD169, HFF
[29] = test system: Hepatitis C virus; assay: Antiviral activity against Hepatitis C virus infected in human Huh7ET cells assessed as inhibition of viral replication at 20 uM by luciferase reporter gene assay; type: functional, Hepacivirus hominis; conditions: Huh-7
[30] = Orthopoxvirus vaccinia, Copenhagen, HFF
[31] = Orthopoxvirus vaccinia, Copenhagen, HFF, read-out: EC50

| SMILES | CC50 [1] | EC50 [3] | EC90 [3] | CC50 [4] | CC90 [4] | EC50 [5] | EC90 [5] | EC50 [6] | EC90 [6] | selectivity ratio [7] | CC50 [8] | selectivity ratio [9] | selectivity ratio [11] | CC50 [12] | EC50 [13] | EC90 [13] | selectivity ratio [14] | EC90 [15, 30] | EC50 [15, 31] | selectivity ratio [16] | other results |
| --- | --- | --- | --- | --- | --- | --- | --- | --- | --- | --- | --- | --- | --- | --- | --- | --- | --- | --- | --- | --- | --- |
| Nc1nc(O)c2ncn(COC(CO)CO)c2n1 [GANCICLOVIR] | > 100 µM |  |  |  |  |  |  |  |  |  |  |  |  |  |  |  |  |  |  |  | selectivity ratio [2]: > 2500 |
| NC(=S)N/N=C/c1ccc(OC(F)(F)F)cc1 | 290 µM | 0.08 µM | 0.61 µM | 1.44 µM | ≥ 5.08 µM | > 60 µM | > 60 µM | 54.3 µM | > 300 µM | > 40 | > 300 µM | > 5.5 | > 1.2 | > 300 µM | 0.08 µM | 0.5 µM | 18 | > 300 µM | 250 µM | 111 | selectivity ratio [10]: 8.3; selectivity ratio [2]: < 4.8 |
| Cc1cn([C@H]2C[C@H](N=[N+]=[N-])[C@@H](CO)O2)c(=O)[nH]c1=O [ZIDOVUDINE] |  |  |  |  |  |  |  |  |  |  |  |  |  |  |  |  |  |  |  |  | CC50 [17]: > 100 µM; EC50 [18]: 0.0044 µM; EC90 [18]: 0.031 µM; Selectivity Index [19]: >22727 |
| Nc1nc2c(ncn2COC(CO)CO)c(=O)[nH]1 [GANCICLOVIR] |  |  |  |  |  | 0.04 µM |  |  |  |  |  |  |  |  |  |  |  |  |  |  | EC90 ([15]; Orthopoxvirus vaccinia): inactive; EC50 ([15]; hff): Not Active |
| CN(C)c1ccc(/C=N/N=c2\[nH]c(-c3ccc(F)cc3)cs2)cc1 | > 300 µM |  |  |  |  | > 300 µM | > 300 µM | 36 µM | > 300 µM |  | > 300 µM | > 8.3 | > 4.1 | > 300 µM | 6.32 µM | > 20 µM |  | 84.9 µM | 73.6 µM | > 3.2 | Activity [3]: inactive; selectivity ratio [20]: > 18.1; EC50 [21]: 16.6 µM; EC90 [21]: 26.5 µM; CC50 [22]: > 300 µM |
| Nc1nc2c(ncn2COCCO)c(=O)[nH]1 [ACYCLOVIR] |  |  |  |  |  |  |  |  |  |  |  |  |  |  |  |  |  |  |  |  | selectivity ratio [20]: > 90.9; EC50 [21]: 1.1 µM; CC50 [22]: > 100 µM; EC90 ([15]; Orthopoxvirus vaccinia): inactive; EC50 ([15]; hff): Not Active |
| Nc1ccn(C[C@@H](CO)OCP(=O)(O)O)c(=O)n1 [CIDOFOVIR] |  |  |  |  |  |  |  | 6.7 µM | 18.4 µM |  | > 317 µM | > 47.3 | > 32.3 | > 317 µM |  |  |  | 20 µM | 9.8 µM |  |  |
| CC1=C(/C=C/C(C)=C/C=C/C(C)=C/C=N/[N-]C(=S)[N-]C(=S)[N-]/N=C/C=C(C)/C=C/C=C(C)/C=C/C2=C(C)CCCC2(C)C)C(C)(C)CCC1.O.[Na+].[Na+].[Na+] |  | 0.36 µM | 1.97 µM | 11.2 µM | > 20 µM |  |  | > 2.4 µM | > 2.4 µM | > 5 | 11.8 µM | < 4.9 | > 4.9 | 11.8 µM | 0.85 µM | 4 µM | 31 | > 2.4 µM | > 2.4 µM | 15.2 | CC50 at 1 h [23]: 13.6 µM; selectivity ratio [10]: > 10.2; selectivity ratio at 1 h [24]: 5.7; EC50 [25]: 4.7 µM; EC90 [25]: 17 µM; CC50 [17]: 28.5 µM; EC50 [18]: 1.4 µM; EC90 [18]: 6.5 µM; Selectivity Index [19]: 5.2; selectivity ratio at 1 h [26]: 7.1; CC50 at 1 h [27]: 33.3 µM; EC50 [28]: 2.4 µM; EC90 [28]: > 4 µM |
| CCCCCCCCCCCCCCS/C(N)=N/N=C/c1ccc(N(C)C)cc1 |  |  |  |  |  |  |  |  |  |  |  |  |  |  |  |  |  |  |  |  | Activity [3]: inactive; inhibition at 20 µM [29]: 31.4% |
| NC(=S)N/N=C/c1ccc(Br)cc1F | > 300 µM | 0.25 µM | > 20 µM | ≥ 12.2 µM | > 20 µM | > 300 µM | > 300 µM | 115 µM | 294 µM | > 3.4 | > 300 µM | > 2.6 | > 2.7 | > 300 µM | 0.28 µM | 5.93 µM | 48.8 | 239 µM | 110 µM | > 71.4 | EC50 [21]: > 300 µM; EC90 [21]: > 300 µM; CC50 [22]: > 300 µM |
